The record followed here is patent US8865967B2 (priority 2010, dated 2014).

The test system of the assay is Colletotrichum graminicola (CGR; isolate Carroll-IA-99). The assay is classed as cell-based. As to conditions: in words, variant after one round of DNA shuffling.

Consider “Pp-PDF1-1C-7A4: Pp-PDF1 variant from first shuffling round (RVCEKPSKFFKGLCGSDRDCTNACRKEGLATGECQSKGFFNSVCVCKKPC; Synthetic sequence obtained from DNA shuffling of a plant sequence.)”, for which the “in vitro inhibitory activity against Colletotrichum graminicola” value is “significantly improved”.
